Assay results reported in the kinase profiling compilation of Christmann-Franck et al. (2016).

Legend:
Assay in all cases: radiometric filter-binding kinase assay, Kinase HotSpot
Settings in all cases: compound 0.5 µM; ATP 10 µM
SGK2 (human) = SGK2 (human) (UniProt Q9HBY8)
EPHA4 (human) = EPHA4 (human) (UniProt P54764)
MAP3K3 (human) = MAP3K3 (human) (UniProt Q99759)
CAMKK1 (human) = CAMKK1 (human) (UniProt Q8N5S9)
ACVRL1 (human) = ACVRL1 (human) (UniProt P37023)
EPHA7 (human) = EPHA7 (human) (UniProt Q15375)
ALK (human) = ALK (human) (UniProt Q9UM73)
JAK2 JH1 JH2 (human) = JAK2 JH1 JH2 (human) (UniProt O60674)
CDK1 CCNB1 (human) = CDK1 CCNB1 (human) (UniProt P06493+P14635)
CAMK1 (human) = CAMK1 (human) (UniProt Q14012)
RPS6KA6 KD1 KD2 (human) = RPS6KA6 KD1 KD2 (human) (UniProt Q9UK32)
FGR (human) = FGR (human) (UniProt P09769)
CDK3 CCNE1 (human) = CDK3 CCNE1 (human) (UniProt Q00526+P24864)
TSSK1B (human) = TSSK1B (human) (UniProt Q9BXA7)
[1] = target: TYK2 JH1 catalytic (human) (UniProt P29597)
MAP3K9 (human) = MAP3K9 (human) (UniProt P80192)
MAPK12 (human) = MAPK12 (human) (UniProt P53778)
CDK1 CCNA2 (human) = CDK1 CCNA2 (human) (UniProt P06493+P20248)
WNK3 (human) = WNK3 (human) (UniProt Q9BYP7)
MKNK2 (human) = MKNK2 (human) (UniProt Q9HBH9)
MAPK1 (human) = MAPK1 (human) (UniProt P28482)
DYRK3 (human) = DYRK3 (human) (UniProt O43781)
PRKG2 (human) = PRKG2 (human) (UniProt Q13237)
STK33 (human) = STK33 (human) (UniProt Q9BYT3)
MAPK13 (human) = MAPK13 (human) (UniProt O15264)
CSNK1G3 (human) = CSNK1G3 (human) (UniProt Q9Y6M4)
PIM3 (human) = PIM3 (human) (UniProt Q86V86)
PRKCG (human) = PRKCG (human) (UniProt P05129)
PIM2 (human) = PIM2 (human) (UniProt Q9P1W9)
DYRK1B (human) = DYRK1B (human) (UniProt Q9Y463)
AKT1 (human) = AKT1 (human) (UniProt P31749)
CLK1 (human) = CLK1 (human) (UniProt P49759)
PRKCD (human) = PRKCD (human) (UniProt Q05655)
DDR2 (human) = DDR2 (human) (UniProt Q16832)
IGF1R (human) = IGF1R (human) (UniProt P08069)
NTRK2 (human) = NTRK2 (human) (UniProt Q16620)
RAF1 (human) = RAF1 (human) (UniProt P04049)
PAK4 (human) = PAK4 (human) (UniProt O96013)
MAP3K5 (human) = MAP3K5 (human) (UniProt Q99683)
RPS6KA5 KD2 (human) = RPS6KA5 KD2 (human) (UniProt O75582)
SRC (human) = SRC (human) (UniProt P12931)

ALK (human), sequence (Q9UM73 whole entry, looked up): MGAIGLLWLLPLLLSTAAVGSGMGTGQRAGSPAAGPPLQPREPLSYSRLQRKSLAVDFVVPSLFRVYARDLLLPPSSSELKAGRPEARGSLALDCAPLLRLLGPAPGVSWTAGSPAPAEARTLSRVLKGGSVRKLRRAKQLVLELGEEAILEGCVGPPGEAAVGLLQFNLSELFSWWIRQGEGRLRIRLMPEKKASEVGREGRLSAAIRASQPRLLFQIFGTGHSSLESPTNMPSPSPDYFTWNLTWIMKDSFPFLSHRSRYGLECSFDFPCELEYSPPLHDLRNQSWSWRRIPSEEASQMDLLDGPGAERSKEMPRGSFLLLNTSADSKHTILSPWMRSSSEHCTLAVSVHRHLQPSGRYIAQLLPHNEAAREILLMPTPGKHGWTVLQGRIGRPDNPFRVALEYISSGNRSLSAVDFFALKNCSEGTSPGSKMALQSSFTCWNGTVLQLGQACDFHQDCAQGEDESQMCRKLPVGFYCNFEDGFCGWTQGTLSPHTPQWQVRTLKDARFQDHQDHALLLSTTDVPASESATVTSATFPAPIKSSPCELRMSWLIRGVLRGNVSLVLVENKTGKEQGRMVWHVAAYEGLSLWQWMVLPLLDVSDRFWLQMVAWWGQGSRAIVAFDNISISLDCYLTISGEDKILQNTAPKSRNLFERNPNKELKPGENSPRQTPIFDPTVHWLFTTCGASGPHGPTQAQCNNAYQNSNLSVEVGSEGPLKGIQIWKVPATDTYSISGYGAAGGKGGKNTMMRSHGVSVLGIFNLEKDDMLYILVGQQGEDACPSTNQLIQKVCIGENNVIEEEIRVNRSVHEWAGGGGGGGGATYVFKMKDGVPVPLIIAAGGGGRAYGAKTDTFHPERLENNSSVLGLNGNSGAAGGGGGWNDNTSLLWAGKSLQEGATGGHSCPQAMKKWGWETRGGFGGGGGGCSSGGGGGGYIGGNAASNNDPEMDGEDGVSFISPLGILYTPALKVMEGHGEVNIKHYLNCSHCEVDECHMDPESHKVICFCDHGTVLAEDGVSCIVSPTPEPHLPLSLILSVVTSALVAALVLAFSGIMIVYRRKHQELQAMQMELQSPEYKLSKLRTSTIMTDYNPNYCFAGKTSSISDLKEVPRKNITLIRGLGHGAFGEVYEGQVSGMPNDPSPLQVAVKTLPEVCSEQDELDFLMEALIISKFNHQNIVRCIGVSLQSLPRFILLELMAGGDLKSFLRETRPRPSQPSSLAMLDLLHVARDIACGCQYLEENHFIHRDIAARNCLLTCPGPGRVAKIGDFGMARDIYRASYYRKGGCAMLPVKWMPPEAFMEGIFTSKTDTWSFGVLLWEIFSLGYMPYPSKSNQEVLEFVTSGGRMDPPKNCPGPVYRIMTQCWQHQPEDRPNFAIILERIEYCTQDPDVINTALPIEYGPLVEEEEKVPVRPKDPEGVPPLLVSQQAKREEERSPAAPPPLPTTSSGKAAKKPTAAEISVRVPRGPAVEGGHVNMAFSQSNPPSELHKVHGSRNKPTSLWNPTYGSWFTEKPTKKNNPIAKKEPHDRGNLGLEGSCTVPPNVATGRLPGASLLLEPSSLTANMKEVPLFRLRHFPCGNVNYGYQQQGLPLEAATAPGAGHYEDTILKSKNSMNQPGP
EPHA7 (human), sequence (Q15375 whole entry, looked up): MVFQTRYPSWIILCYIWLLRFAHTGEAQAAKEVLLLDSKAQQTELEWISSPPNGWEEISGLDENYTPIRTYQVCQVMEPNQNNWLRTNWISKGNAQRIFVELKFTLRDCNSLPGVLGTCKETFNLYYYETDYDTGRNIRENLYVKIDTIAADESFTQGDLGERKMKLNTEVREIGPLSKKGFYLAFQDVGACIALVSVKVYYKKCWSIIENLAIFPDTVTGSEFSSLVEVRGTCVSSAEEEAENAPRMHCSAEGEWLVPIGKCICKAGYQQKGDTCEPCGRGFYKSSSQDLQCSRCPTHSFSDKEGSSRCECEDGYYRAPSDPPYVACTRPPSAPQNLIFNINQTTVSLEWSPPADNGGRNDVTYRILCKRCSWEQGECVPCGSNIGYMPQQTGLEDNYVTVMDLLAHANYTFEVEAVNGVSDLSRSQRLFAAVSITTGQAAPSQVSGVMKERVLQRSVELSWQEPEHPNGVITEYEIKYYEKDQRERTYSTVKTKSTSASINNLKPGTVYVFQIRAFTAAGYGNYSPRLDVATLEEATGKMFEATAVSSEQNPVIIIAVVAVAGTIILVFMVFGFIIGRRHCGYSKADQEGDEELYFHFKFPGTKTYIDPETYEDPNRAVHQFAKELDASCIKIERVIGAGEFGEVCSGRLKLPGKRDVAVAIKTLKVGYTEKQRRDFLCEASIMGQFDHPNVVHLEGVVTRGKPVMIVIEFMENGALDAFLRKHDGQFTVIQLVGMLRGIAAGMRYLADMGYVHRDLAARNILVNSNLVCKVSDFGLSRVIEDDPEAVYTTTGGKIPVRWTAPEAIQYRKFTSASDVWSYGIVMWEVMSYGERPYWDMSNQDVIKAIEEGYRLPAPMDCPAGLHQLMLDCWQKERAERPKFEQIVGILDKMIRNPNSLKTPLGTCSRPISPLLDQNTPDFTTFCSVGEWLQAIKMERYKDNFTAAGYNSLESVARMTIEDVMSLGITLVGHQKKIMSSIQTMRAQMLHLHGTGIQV
FGR (human), sequence (P09769 whole entry, looked up): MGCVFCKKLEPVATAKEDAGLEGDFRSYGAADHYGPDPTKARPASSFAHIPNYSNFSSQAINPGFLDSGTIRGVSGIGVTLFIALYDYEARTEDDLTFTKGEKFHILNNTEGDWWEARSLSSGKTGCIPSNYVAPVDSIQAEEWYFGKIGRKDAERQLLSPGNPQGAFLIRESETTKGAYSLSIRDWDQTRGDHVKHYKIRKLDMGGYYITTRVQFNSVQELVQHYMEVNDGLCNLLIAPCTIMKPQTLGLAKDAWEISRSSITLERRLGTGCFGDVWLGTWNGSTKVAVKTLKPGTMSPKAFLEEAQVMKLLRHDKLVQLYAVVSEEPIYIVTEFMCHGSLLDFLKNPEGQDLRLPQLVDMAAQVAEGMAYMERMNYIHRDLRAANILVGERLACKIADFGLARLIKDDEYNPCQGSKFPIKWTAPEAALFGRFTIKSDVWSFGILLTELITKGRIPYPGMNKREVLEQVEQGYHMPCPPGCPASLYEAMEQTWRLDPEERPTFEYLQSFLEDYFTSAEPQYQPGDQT
MAPK13 (human), sequence (O15264 whole entry, looked up): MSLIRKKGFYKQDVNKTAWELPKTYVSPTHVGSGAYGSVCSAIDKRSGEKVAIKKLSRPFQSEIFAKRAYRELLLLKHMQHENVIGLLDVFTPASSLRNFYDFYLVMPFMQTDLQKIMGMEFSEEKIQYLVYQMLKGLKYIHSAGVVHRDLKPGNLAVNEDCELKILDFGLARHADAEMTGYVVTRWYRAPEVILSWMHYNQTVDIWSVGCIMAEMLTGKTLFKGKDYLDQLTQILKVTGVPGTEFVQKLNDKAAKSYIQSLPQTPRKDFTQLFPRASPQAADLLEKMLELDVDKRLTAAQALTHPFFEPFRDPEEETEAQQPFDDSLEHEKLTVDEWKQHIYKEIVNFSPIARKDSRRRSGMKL
DYRK3 (human), sequence (O43781 whole entry, looked up): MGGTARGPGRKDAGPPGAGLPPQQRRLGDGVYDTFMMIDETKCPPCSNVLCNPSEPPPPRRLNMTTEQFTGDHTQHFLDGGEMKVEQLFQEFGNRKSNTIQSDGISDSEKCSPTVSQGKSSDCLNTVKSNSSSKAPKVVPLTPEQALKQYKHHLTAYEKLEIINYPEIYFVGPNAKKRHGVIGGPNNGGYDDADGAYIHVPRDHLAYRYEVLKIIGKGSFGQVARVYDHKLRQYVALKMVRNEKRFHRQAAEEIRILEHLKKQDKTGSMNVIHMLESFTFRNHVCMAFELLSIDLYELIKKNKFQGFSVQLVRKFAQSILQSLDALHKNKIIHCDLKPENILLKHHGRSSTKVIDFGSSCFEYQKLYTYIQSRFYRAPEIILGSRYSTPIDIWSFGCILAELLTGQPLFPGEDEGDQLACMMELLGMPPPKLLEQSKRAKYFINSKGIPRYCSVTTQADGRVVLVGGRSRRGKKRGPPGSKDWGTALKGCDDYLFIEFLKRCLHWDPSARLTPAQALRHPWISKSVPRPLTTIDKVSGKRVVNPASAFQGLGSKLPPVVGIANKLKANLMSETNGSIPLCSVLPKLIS
MKNK2 (human), sequence (Q9HBH9 whole entry, looked up): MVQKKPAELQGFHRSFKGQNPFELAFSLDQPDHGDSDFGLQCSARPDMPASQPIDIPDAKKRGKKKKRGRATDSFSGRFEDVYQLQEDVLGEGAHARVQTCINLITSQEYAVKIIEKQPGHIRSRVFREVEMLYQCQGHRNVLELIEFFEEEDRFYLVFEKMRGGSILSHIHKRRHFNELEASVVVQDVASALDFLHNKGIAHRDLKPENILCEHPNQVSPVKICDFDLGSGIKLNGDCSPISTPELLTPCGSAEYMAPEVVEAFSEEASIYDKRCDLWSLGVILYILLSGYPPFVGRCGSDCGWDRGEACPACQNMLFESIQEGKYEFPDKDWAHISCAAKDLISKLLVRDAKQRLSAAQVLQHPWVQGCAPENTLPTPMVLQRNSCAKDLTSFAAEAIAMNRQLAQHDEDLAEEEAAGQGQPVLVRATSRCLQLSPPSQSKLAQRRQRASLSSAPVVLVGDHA
TSSK1B (human), sequence (Q9BXA7 whole entry, looked up): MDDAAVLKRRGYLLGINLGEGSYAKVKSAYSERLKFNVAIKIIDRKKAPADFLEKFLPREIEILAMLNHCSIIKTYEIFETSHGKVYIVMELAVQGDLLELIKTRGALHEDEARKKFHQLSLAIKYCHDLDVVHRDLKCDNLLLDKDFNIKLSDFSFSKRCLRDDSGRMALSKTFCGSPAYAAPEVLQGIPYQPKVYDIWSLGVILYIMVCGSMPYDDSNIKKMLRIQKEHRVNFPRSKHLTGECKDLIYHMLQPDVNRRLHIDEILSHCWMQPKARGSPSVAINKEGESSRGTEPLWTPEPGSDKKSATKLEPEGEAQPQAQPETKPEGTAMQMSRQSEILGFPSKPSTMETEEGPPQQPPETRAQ

What does the source list for `Nc1nnc2[nH]c3ccccc3nc1-2`?
residual activity (SGK2 (human)): 90.3%; residual activity (EPHA4 (human)): 86.5%; residual activity (MAP3K3 (human)): 103%; residual activity (CAMKK1 (human)): 112%; residual activity (ACVRL1 (human)): 105%; residual activity (EPHA7 (human)): 95.3%; residual activity (ALK (human)): 96.7%; residual activity (JAK2 JH1 JH2 (human)): 105%; residual activity (CDK1 CCNB1 (human)): 79.6%; residual activity (CAMK1 (human)): 94.4%; residual activity (RPS6KA6 KD1 KD2 (human)): 94.2%; residual activity (FGR (human)): 96.3%; residual activity (CDK3 CCNE1 (human)): 93.1%; residual activity (TSSK1B (human)): 95.4%; residual activity [1]: 107%; residual activity (MAP3K9 (human)): 97.7%; residual activity (MAPK12 (human)): 100%; residual activity (CDK1 CCNA2 (human)): 95.3%; residual activity (WNK3 (human)): 98%; residual activity (MKNK2 (human)): 89.1%; residual activity (MAPK1 (human)): 100%; residual activity (DYRK3 (human)): 102%; residual activity (PRKG2 (human)): 66.7%; residual activity (STK33 (human)): 98.7%; residual activity (MAPK13 (human)): 101%; residual activity (CSNK1G3 (human)): 95.6%; residual activity (PIM3 (human)): 94%; residual activity (PRKCG (human)): 97.3%; residual activity (PIM2 (human)): 105%; residual activity (DYRK1B (human)): 96%; residual activity (AKT1 (human)): 106%; residual activity (CLK1 (human)): 99.2%; residual activity (PRKCD (human)): 98.3%; residual activity (DDR2 (human)): 94.6%; residual activity (IGF1R (human)): 97.5%; residual activity (NTRK2 (human)): 96.4%; residual activity (RAF1 (human)): 94.4%; residual activity (PAK4 (human)): 104%; residual activity (MAP3K5 (human)): 103%; residual activity (RPS6KA5 KD2 (human)): 92.4%

With `COc1ccc(CNC(=O)Nc2ncc([N+](=O)[O-])s2)cc1` as the compound, how does the residual activity (SGK2 (human)) read?
The residual activity was 99.5%.

What about the residual activity (EPHA4 (human)) of the same compound?
Its residual activity is 101%.

What about the residual activity (MAP3K3 (human)) of the same compound?
The residual activity was 87.6%.

And the residual activity (CAMKK1 (human))?
Its residual activity is 119%.

What about the residual activity (ACVRL1 (human)) of the same compound?
Its residual activity is 106%.

What about the residual activity (EPHA7 (human)) of the same compound?
The residual activity was 96.6%.

What about the residual activity (ALK (human)) of the same compound?
Its residual activity is 100%.

What about the residual activity (JAK2 JH1 JH2 (human)) of the same compound?
The residual activity was 104%.

And the residual activity (CDK1 CCNB1 (human))?
Its residual activity is 85.1%.

What about the residual activity (CAMK1 (human)) of the same compound?
Its residual activity is 101%.

What about the residual activity (RPS6KA6 KD1 KD2 (human)) of the same compound?
The residual activity was 99.8%.

What about the residual activity (FGR (human)) of the same compound?
The residual activity was 92.4%.

What about the residual activity (CDK3 CCNE1 (human)) of the same compound?
The residual activity was 94.8%.

What about the residual activity (TSSK1B (human)) of the same compound?
The residual activity was 106%.

What about the residual activity [1] of the same compound?
The residual activity was 108%.

What about the residual activity (MAP3K9 (human)) of the same compound?
Its residual activity is 101%.

What about the residual activity (CDK1 CCNA2 (human)) of the same compound?
Its residual activity is 93.4%.

And the residual activity (WNK3 (human))?
The residual activity was 101%.

And the residual activity (MKNK2 (human))?
Its residual activity is 95.7%.

What about the residual activity (MAPK1 (human)) of the same compound?
Its residual activity is 104%.

And the residual activity (DYRK3 (human))?
Its residual activity is 105%.

What about the residual activity (PRKG2 (human)) of the same compound?
Its residual activity is 100%.

And the residual activity (STK33 (human))?
The residual activity was 100%.

What about the residual activity (MAPK13 (human)) of the same compound?
The residual activity was 91.1%.

What about the residual activity (CSNK1G3 (human)) of the same compound?
The residual activity was 90.4%.

And the residual activity (PIM3 (human))?
The residual activity was 108%.

And the residual activity (PRKCG (human))?
Its residual activity is 99.8%.

What about the residual activity (PIM2 (human)) of the same compound?
Its residual activity is 94.5%.

And the residual activity (DYRK1B (human))?
Its residual activity is 99.4%.

And the residual activity (AKT1 (human))?
The residual activity was 102%.

And the residual activity (CLK1 (human))?
The residual activity was 106%.

What about the residual activity (PRKCD (human)) of the same compound?
The residual activity was 100%.

And the residual activity (DDR2 (human))?
The residual activity was 100%.

And the residual activity (SRC (human))?
The residual activity was 101%.

What about the residual activity (IGF1R (human)) of the same compound?
Its residual activity is 101%.

And the residual activity (NTRK2 (human))?
Its residual activity is 85.6%.

And the residual activity (RAF1 (human))?
Its residual activity is 94%.

What about the residual activity (PAK4 (human)) of the same compound?
The residual activity was 115%.

And the residual activity (MAP3K5 (human))?
Its residual activity is 87.8%.

And the residual activity (RPS6KA5 KD2 (human))?
Its residual activity is 99.5%.
